From PMC6925341 (SLAS discovery : advancing life sciences R & D, 2019)
Where two headings read alike, the source gives them in different places.

Key:
[1] = tested on: 293FT cells; test: cells; assay type: cell-based, Human; details: for IC50: read-out: 293FT Cell Viability IC50; for cell viability IC50: control validation, known inhibitor
[2] = tested on: HPV16-PsV; test: organism not typed; assay type: cell-based, HPV-16; details: for IC50: read-out: HPV Infection IC50; for reduction of HPV-16PsV infection, fold change compared with the control of cells only: 30 μM, secondary stock
[3] = in vitro; assay type: cell-based, Human; details: human
[4] = tested on: SV40 promoter; test: SV40 promoter transfection in 293FT cells; assay type: cell-based; details: 30.0 μM, vs SV40 with no drug; data not shown

Molecule	IC50 ([1]; Homo sapiens) [µM]	IC50 ([2]; 72 h) [µM]	also measured
COc1cc(NS(C)(=O)=O)ccc1Nc1c2ccccc2nc2ccccc12 [Amsacrine]	1	0.01	–
N=c1ccn2c(n1)O[C@H]1[C@H](O)[C@@H](CO)O[C@H]12 [Ancitabine]	5	< 0.007	–
O=[N+]([O-])C(Br)(CO)CO [Bronopol]	7	3	–
Cc1cc(C2CCCCC2)n(O)c(=O)c1 [Ciclopirox]	8	2	–
Nc1nc(Cl)nc2c1ncn2[C@H]1C[C@H](O)[C@@H](CO)O1 [Cladribine]	4	–	–
Nc1nc(Cl)nc2c1ncn2[C@@H]1O[C@H](CO)[C@@H](O)[C@@H]1F [Clofarabine]	2	–	–
C[C@H]1O[C@@H](n2cc(F)c(=O)[nH]c2=O)[C@H](O)[C@@H]1O [Doxifluridine]	16	5	–
COc1cc([C@@H]2c3cc4c(cc3[C@@H](O[C@@H]3O[C@@H]5CO[C@@H](C)O[C@H]5[C@H](O)[C@H]3O)[C@H]3COC(=O)[C@H]23)OCO4)cc(OC)c1O [Etoposide]	1	0.01	–
O=c1[nH]c(=O)n([C@H]2C[C@H](O)[C@@H](CO)O2)cc1F [Floxuridine]	–	< 0.007	–
O=c1[nH]c(=O)n([C@H]2C[C@H](O)[C@@H](CO)O2)cc1F [Fluorodeoxyuridine]	–	–	IC50 [1]: 13 µM; IC50 [2]: 4 µM
O=c1[nH]cc(F)c(=O)[nH]1 [Fluorouracil]	13	1	–
CNCCC=C1c2ccccc2CCc2ccccc21 [Nortriptyline]	> 15	6	–
Cc1nccn1CC1CCc2c(c3ccccc3n2C)C1=O (centres unmarked) [Ondansetron]	–	5	–
O=C1[O][Pt]2([NH][C@@H]3CCCC[C@H]3[NH]2)[O]C1=O [Oxaliplatin]	–	–	IC50 [1]: 8 µM; IC50 [2]: 1 µM
N=C(N)c1ccc(OCCCCCOc2ccc(C(=N)N)cc2)cc1 [Pentamidine]	9	2	viability at 30 µM [3]: > 95%; cellular cytotoxicity ([1]; human): < 10.0%; effect on SV40 promoter activity [4]: did not significantly affect; reduction of HPV-16PsV infection, fold change compared with the control of cells only [2]: twofold
CC[C@@]1(O)C(=O)OCc2c1cc1n(c2=O)Cc2cc3c([N+](=O)[O-])cccc3nc2-1 [Rubitecan]	–	0.8	–
O=C1C=C2C=C[C@@H]3C[C@@]2(O1)[C@H]1CCCCN31 [Securinine]	4	2	viability at 30 µM [3]: > 95%; cellular cytotoxicity ([1]; lead drugs, triplicate): < 10.0%; effect on SV40 promoter activity [4]: did not significantly affect; reduction of HPV-16PsV infection, fold change compared with the control of cells only [2]: 1.5 fold
Cc1cc2nc3ccc(N(C)C)cc3[s+]c2cc1N [Tolonium chloride]	4	2	–
Bleomycin	–	–	IC50 [1]: 2 µM; IC50 [2]: < 0.007 µM
Carrageenan	–	–	cell viability IC50 [1]: ≥ 2 µg/mL
heparin	–	–	cell viability IC50 [1]: 83.0 µg/mL; inhibition of HPV 16-PsV infection IC50 ([2]; control validation, known inhibitor): 24 µg/mL
